Assays:
[1] = target: T1, Purified recombinant NBD1 (Homo sapiens, UniProt P13569); assay: Aggregation analysis using differential static light scattering (DSLS): thermal stability of NBD1; format: binding; settings: NBD1 0.2 mg/ml; Tagg of compound well minus average Tagg of DMSO control wells
T1 construct: Purified recombinant NBD1 was produced using previously described methods; made in house
In short: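 Recombinant NBD1 at 0.2 mg/ml in Tris/NaCl/MgCl2 buffer with 2 mM ATP, 2 mM DTT, 1% glycerol, pH 7.6, was incubated with compound and heated at 1 °C/min to 70 °C while static light scattering was monitored. Tagg was taken from the curve inflection point and reported as ΔTagg relative to DMSO controls.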

[2] = tested on: Primary human bronchial epithelial cells from a ΔF508 homozygous CF donor (CF-HBE cells); assay: TECC24 recording of CFTR-mediated transepithelial chloride transport, AUC fold over benchmark VX-809 @10 μM; format: cell-based; settings: 48 hours incubation, AUC of forskolin-stimulated IEQ
In short: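 CF-HBE cells on inserts were treated with compound for 48 h at 36.5 °C, then recorded in current-clamp with benzamil 10 μM, forskolin 10 μM, and finally CFTR inhibitor-172 20 μM in pH 7.4 Hepes saline. Equivalent Cl− current AUC between forskolin and inhibitor addition is expressed as a ratio to VX-809 AUC: A <3, B 3–6, C 6–20.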

T1 sequence (P13569 423-646 limits assumed): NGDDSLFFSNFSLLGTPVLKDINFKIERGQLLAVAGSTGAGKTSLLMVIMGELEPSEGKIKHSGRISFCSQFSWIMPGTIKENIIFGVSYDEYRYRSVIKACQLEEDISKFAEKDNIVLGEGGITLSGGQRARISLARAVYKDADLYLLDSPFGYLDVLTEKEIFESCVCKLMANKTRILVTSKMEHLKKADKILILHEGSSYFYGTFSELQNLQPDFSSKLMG

SMILES	DSLS (ΔTagg) [1]	TECC (test agent AUC divided by VX-809 AUC) [2]
C[C@H](Cc1cccc([C@@]2(C)CCCC(C)(C)CN(C)C(=O)CCc3c(c(F)cc4[nH]ccc34)Oc3ccnc(c3)-c3nc2nn3C)c1)C(=O)O [Compound 119, (2R)-3-[3-[(6R)-23-fluoro-3,6,10,10,12-pentamethyl-13-oxo-25-oxa-3,4,12,20,29,31-hexazapentacyclo[24.3.1.12,5.016,24.017,21]hentriaconta-1(30),2(31),4,16,18,21,23,26,28-nonaen-6-yl]phenyl]-2-methyl-propanoic acid]	B (a value above 5 °C and less than or equal to 10 °C is marked “B”)	B (a value between 3 and 6 is marked “B”)
CN1CC(C)(C)CCC[C@](C)(c2cccc(CC(C)(C)C(=O)O)c2)c2nc(n(C)n2)-c2cc(ccn2)Oc2c(F)cc3[nH]ccc3c2CCC1=O [Compound 120, 3-[3-[(6R)-23-fluoro-3,6,10,10,12-pentamethyl-13-oxo-25-oxa-3,4,12,20,29,31-hexazapentacyclo[24.3.1.12,5.016,24.017,21]hentriaconta-1(30),2(31),4,16,18,21,23,26,28-nonaen-6-yl]phenyl]-2,2-dimethyl-propanoic acid]	B (a value above 5 °C and less than or equal to 10 °C is marked “B”)	A (a TECC value less than 3 is marked “A”)
CC1(c2cccc(CCC(=O)O)c2F)CCCCOC(=O)NCCc2c(c(F)cc3[nH]ccc23)Oc2ccc(F)c(c2)-c2ncc1[nH]2 (stereo not shown) [Compound 80, 3-[3-(23,29-Difluoro-6-methyl-12-oxo-11,25-dioxa-3,13,20,31-tetrazapentacyclo[24.3.1.12,5.016,24.017,21]hentriaconta-1(30),2,4,16,18,21,23,26,28-nonaen-6-yl)-2-fluoro-phenyl]propanoic acid]	C (a value greater than 10 °C and less than or equal to 25 °C is marked “C”)	B (a value between 3 and 6 is marked “B”)
[2H]C([2H])([2H])n1nc2nc1-c1cc(ccc1F)Oc1c(F)cc3[nH]ccc3c1CCC(=O)N(C)CC(C)(C)CCCC2(C)c1cccc(CCC(=O)NS(C)(=O)=O)c1 (single isomer, unassigned) [Compound 79A, 3-[3-[23,29-difluoro-6,10,10,12-tetramethyl-13-oxo-3-(trideuteriomethyl)-25-oxa-3,4,12,20,31-pentazapentacyclo[24.3.1.12,5.016,24.017,21]hentriaconta-1(30),2(31),4,16,18,21,23,26,28-nonaen-6-yl]phenyl]-N-methylsulfonyl-propanamide]	A (an ΔTagg value less than or equal to 5 °C is marked “A”)	A (a TECC value less than 3 is marked “A”)
CN1CC(C)(C)CCCC(C)(c2cccc(CCC(=O)O)c2)c2cnc([nH]2)-c2cc(ccc2F)Oc2c(F)cc3[nH]ccc3c2CCC1=O (single isomer, unassigned) [Compound 49A, 3-[3-(23,29-Difluoro-6,10,10,12-tetramethyl-13-oxo-25-oxa-3,12,20,31-tetrazapentacyclo-[24.3.1.12,5.016,24.017,21]-hentriaconta-1(30),2,4,16,18,21,23,26,28-nonaen-6-yl)phenyl]propanoic acid]	A (an ΔTagg value less than or equal to 5 °C is marked “A”)	A (a TECC value less than 3 is marked “A”)
O=C(O)CCc1cccc(C2CCCNC(=O)CCc3c(c(F)cc4[nH]ccc34)Oc3ccc(F)c(c3)-c3ncc2[nH]3)c1 (stereo not shown) [Compound 8, 3-[3-(21,27-Difluoro-11-oxo-23-oxa-3,10,18,29-tetrazapentacyclo[22.3.1.12,5.014,22.015,19]nonacosa-1(28),2,4,14,16,19,21,24,26-nonaen-6-yl)phenyl]propanoic acid]	C (a value greater than 10 °C and less than or equal to 25 °C is marked “C”)	A (a TECC value less than 3 is marked “A”)
CC1(C)CCOCC(c2cccc(CCC(=O)O)c2)n2ccc(n2)-c2cc(ccc2F)Oc2c(F)cc3[nH]ccc3c2COC(=O)N1 (single isomer, unassigned) [Compound 96B, 3-[3-(23,29-difluoro-11,11-dimethyl-13-oxo-8,14,25-trioxa-5,12,20,31-tetrazapentacyclo[24.3.1.12,5.016,24.017,21]hentriaconta-1(30),2(31),3,16,18,21,23,26,28-nonaen-6-yl)phenyl]propanoic acid]	C (a value greater than 10 °C and less than or equal to 25 °C is marked “C”)	C (a value between 6 and 20 is marked “C”)
CN1CC(C)(C)OCCC(C)(c2ccccc2)c2cnc([nH]2)-c2cc(ccc2F)Oc2c(F)cc3[nH]ccc3c2CCC1=O (stereo not shown) [Compound 43, 23,29-Difluoro-6,10,10,12-tetramethyl-6-phenyl-9,25-dioxa-3,12,20,31-tetrazapentacyclo[24.3.1.12,5.016,24.017,21]hentriaconta-1(30),2,4,16,18,21,23,26,28-nonaen-13-one]	A (an ΔTagg value less than or equal to 5 °C is marked “A”)	A (a TECC value less than 3 is marked “A”)
C[C@@H](Cc1cccc([C@@]2(C)CCCC(C)(C)CN(C)C(=O)CCc3c(c(F)cc4[nH]ccc34)Oc3ccnc(c3)-c3nc2nn3C)c1)C(=O)O [Compound 118, (2S)-3-[3-[(6R)-23-fluoro-3,6,10,10,12-pentamethyl-13-oxo-25-oxa-3,4,12,20,29,31-hexazapentacyclo[24.3.1.12,5.016,24.017,21]hentriaconta-1(30),2(31),4,16,18,21,23,26,28-nonaen-6-yl]phenyl]-2-methyl-propanoic acid]	C (a value greater than 10 °C and less than or equal to 25 °C is marked “C”)	B (a value between 3 and 6 is marked “B”)
[2H]C([2H])([2H])n1nc2nc1-c1cc(ccc1F)Oc1c(F)cc3[nH]ccc3c1CCC(=O)N(C)CC(C)(C)CCCC2(C)c1cccc(CCC(=O)NS(C)(=O)=O)c1 (single isomer, unassigned) [Compound 79B, 3-[3-[23,29-difluoro-6,10,10,12-tetramethyl-13-oxo-3-(trideuteriomethyl)-25-oxa-3,4,12,20,31-pentazapentacyclo[24.3.1.12,5.016,24.017,21]hentriaconta-1(30),2(31),4,16,18,21,23,26,28-nonaen-6-yl]phenyl]-N-methylsulfonyl-propanamide]	C (a value greater than 10 °C and less than or equal to 25 °C is marked “C”)	C (a value between 6 and 20 is marked “C”)
CN1CC(C)(C)CCCC(C)(c2cccc(CCC(=O)O)c2)c2cnc([nH]2)-c2cc(ccc2F)Oc2c(F)c(F)c3[nH]ccc3c2CCC1=O (stereo not shown) [Compound 70, 3-[3-(22,23,29-Trifluoro-6,10,10,12-tetramethyl-13-oxo-25-oxa-3,12,20,31-tetrazapentacyclo[24.3.1.12,5.016,24.017,21]hentriaconta-1(30),2,4,16,18,21,23,26,28-nonaen-6-yl)phenyl]propanoic acid]	C (a value greater than 10 °C and less than or equal to 25 °C is marked “C”)	A (a TECC value less than 3 is marked “A”)

Source: US20250197420A1, “MACROCYCLIC COMPOUNDS, COMPOSITIONS, AND METHODS OF USING THEREOF” (Sionna Therapeutics Inc., priority 2022, published 2025)
